Test results published in patent publication EP4534542A1, “THIOSUGAR BASED ISOTHIOCYANATES AND USES THEREOF” (Universidad de Sevilla, priority 2023, dated 2025).
Where two headings read alike, the source gives them in different places.

What was measured:
HaCaT cells = assay: Cell viability assay (resazurin), cytotoxicity in non-malignant cells; assay type: cell-based, human; conditions: Homo sapiens, HaCaT, read-out: IC50 HaCaT (Non-malignant keratinocyte)
Description: (§1) Cells were grown in Dulbecco's Modified Eagle's Medium (DMEM) supplemented with 100 U/mL penicillin, 100 µg/mL streptomycin and 10% fetal bovine serum. HL60 cell line (acute myeloid leukaemia, AML) was obtained from ATCC. It was cultured in IMDM medium supplemented with 100 U/mL penicillin, 100 µg/mL streptomycin and 10% fetal bovine serum. U937 (AML) and Jurkat cells (ALL) were obtained from DMSZ, Braunschweig, Germany, and ATCC, respectively. They were cultivated in RPMI medium, supplemented with 100 U/mL penicillin, 100 µg/mL streptomycin and 10% fetal bovine serum. […] All cell lines were cultured at 37 ° C with 5% CO2 in a humidified incubator. Cell culture reagents were purchased from Biowest. Exponentially growing cells (3000-6000 cells per well) were seeded in 96-well plates. After 24 hours, cells were treated with the drugs for 72 hours. The cell viability was then estimated with the resazurin assay, a colorimetric technique based on the capability of viable cells to reduce the blue reagent resazurin to the pink-soluble product resorufin. The amount of resorufin produced is proportional to the number of viable cells. Briefly, cells were washed once with phosphate buffered saline (PBS) and 150 µL resazurin (20 µg/mL in medium) was added to each well. The plates were incubated for 3 hours at 37 °C, 5% CO2, and finally optical densities were measured at 540 and 620 nm with a multiwell plate spectrophotometer reader (Multiskan EX Labsystems). Cell viability was calculated as a percentage compared to non-treated cells. The results were expressed as the means ± standard error of the mean (SEM). All data are from at least three independent experiments.

[1] = test system: A549 (human lung adenocarcinoma cells); assay: Cell viability assay (resazurin), cytotoxic activity against solid tumours; assay type: cell-based; conditions: for IC50: Homo sapiens, read-out: IC50 A549 (Lung adenocarcino ma); for S.I. A549 (Selectivity Index): IC50 HaCaT divided by IC50 A549, mean of independent experiments
Description: as §1, with “The plates were incubated for 3 hours at 37 °C, 5% CO2, and finally optical densities were measured at 540 and 620 nm with a multiwell plate spectrophotometer reader (Multiskan EX Labsystems).” left out, “experiments. The selectivity index (S.I.) values were calculated over each cancer cell line as the mean of the IC50 value in the non-malignant cell line (HaCaT) by the IC50 in the respective cancer cell line obtained in each independent experiment.” for “experiments.”

[2] = test system: MeWo (human melanoma cells); assay: as above; assay type: cell-based; conditions: for IC50: Homo sapiens, MeWo, read-out: IC50 MeWo (Melanoma; BRAF WT); for S.I. MeWo (Selectivity Index): IC50 HaCaT divided by IC50 MeWo, mean of independent experiments
Description: as §1, with “The plates were incubated for 3 hours at 37 °C, 5% CO2, and finally optical densities were measured at 540 and 620 nm with a multiwell plate spectrophotometer reader (Multiskan EX Labsystems).” left out, “experiments. The selectivity index (S.I.) values were calculated over each cancer cell line as the mean of the IC50 value in the non-malignant cell line (HaCaT) by the IC50 in the respective cancer cell line obtained in each independent experiment.” for “experiments.”

[3] = test system: T24 (human bladder cancer cells); assay: as above; assay type: cell-based; conditions: for IC50: Homo sapiens, read-out: IC50 T24 (Bladder cancer); for S.I. T24 (Selectivity Index): IC50 HaCaT divided by IC50 T24, mean of independent experiments
Description: as §1, with “The plates were incubated for 3 hours at 37 °C, 5% CO2, and finally optical densities were measured at 540 and 620 nm with a multiwell plate spectrophotometer reader (Multiskan EX Labsystems).” left out, “experiments. The selectivity index (S.I.) values were calculated over each cancer cell line as the mean of the IC50 value in the non-malignant cell line (HaCaT) by the IC50 in the respective cancer cell line obtained in each independent experiment.” for “experiments.”

[4] = test system: HL60 (Acute myeloid leukaemia); assay: Antileukemic activity, cell viability (CCK-8 Cell Counting Kit); assay type: cell-based; conditions: Homo sapiens, HL-60; 18 h incubation, compounds 0 - 100 µM; read-out: IC50 Cancer cells HL60 (Acute myeloid leukaemia)
Description: (§2) HaCaT cells (human keratinocytes, reference control), A549 (human lung adenocarcinoma cells), MeWo (human melanoma cells) and T24 (human bladder cancer cells) were purchased from Cell Lines Service (CLS). Cells were grown in Dulbecco's Modified Eagle's Medium (DMEM) supplemented with 100 U/mL penicillin, 100 µg/mL streptomycin and 10% fetal bovine serum. HL60 cell line (acute myeloid leukaemia, AML) was obtained from ATCC. It was cultured in IMDM medium supplemented with 100 U/mL penicillin, 100 µg/mL streptomycin and 10% fetal bovine serum. U937 (AML) and Jurkat cells (ALL) were obtained from DMSZ, Braunschweig, Germany, and ATCC, respectively. They were cultivated in RPMI medium, supplemented with 100 U/mL penicillin, 100 µg/mL streptomycin and 10% fetal bovine serum. OPM-2 cell line (MM), was obtained from DMSZ, Braunschweig, Germany and cultured in RPMI medium supplemented with 100 U/mL penicillin, 100 µg/mL streptomycin, 10% fetal bovine serum and 1X GlutaMAXTM. All cell lines were cultured at 37 ° C with 5% CO2 in a humidified incubator. Cell culture reagents were purchased from Biowest.
(§3) For the leukemic cell lines, the CCK-8 Cell Counting Kit (Dojindo Molecular Technologies) was used according to manufacturers instructions. Briefly, 50.000 cells were seeded in each well of a 96 well plate, and they were treated with increased amounts (0 - 100 µM) of each of the compounds, and incubated for 18 h at 37 °C, 5% CO2. After this period, 7 µl of the CCK-8 reagent were added to each well, and cells were further incubated for 2 h at 37 °C, 5% CO2. OD at 450 nm was obtained using a MultiskanTM GO microplate reader (Thermo Fisher Scientific, Waltham, MA, EE.UU). Cell viability in each condition was normalized to the measurement obtained in the non treated samples (100%), and were represented as average ± standard error of the mean (SEM).

[5] = test system: Jurkat (Acute lymphoblastic leukaemia); assay: as above; assay type: cell-based; conditions: Homo sapiens, 18 h incubation, compounds 0 - 100 µM, read-out: IC50 Cancer cells Jurkat (Acute lymphoblastic leukaemia)
Description: as §2, §3

OPM-2 (Multiple myeloma) = assay: as above; assay type: cell-based; conditions: Homo sapiens, 18 h incubation, compounds 0 - 100 µM, read-out: IC50 Cancer cells OPM-2 (Multiple myeloma)
Description: as §2, §3

[6] = test system: U937 (Acute myeloid leukaemia); assay: as above; assay type: cell-based; conditions: Homo sapiens, U-937; 18 h incubation, compounds 0 - 100 µM; read-out: IC50 Cancer cells U937 (Acute myeloid leukaemia)
Description: as §2, §3

[7] = 72 h treatment, resazurin assay, mean ± SEM
[8] = A549, 72 h treatment, resazurin assay, mean ± SEM

Row | Structure (SMILES) | IC50 (HaCaT cells; 72 h) [µM] | IC50 ([1]; A549, 72 h) [µM] | S.I. A549 (Selectivity Index) [1] | IC50 ([2]; 72 h) [µM] | S.I. MeWo (Selectivity Index) [2] | IC50 ([3]; 72 h) [µM] | S.I. T24 (Selectivity Index) [3] | IC50 [4] [µM] | IC50 [5] [µM] | IC50 (OPM-2 (Multiple myeloma)) [µM] | IC50 [6] [µM] | IC50 (HaCaT cells; [7]) [µM] | IC50 [1, 8] [µM] | IC50 [2, 7] [µM] | IC50 [3, 7] [µM]
1 | CCS(=O)(=O)[C@H]1O[C@H](COC(C)=O)[C@@H](OC(C)=O)[C@H](N=C=S)[C@H]1OC(C)=O [Compound 20α, Ethyl 2,4,6-tri-O-acetyl-3-isothiocyanato-1,3-dideoxy-1-sulfonyl-α-D-glucopyranose] | > 100 | 92.4 ± 25.7 | 2.1±0.1 | 95.3 ± 44.8 | 1.9±0.2 | 55.8 ± 6 | 2.9±0.8 | 19.9 | 30.3 | 71.9 | 74 | – | – | – | –
2 | CC[S@+]([O-])[C@@H]1O[C@H](COC(C)=O)[C@@H](OC(C)=O)[C@H](N=C=S)[C@H]1OC(C)=O [(SS)-17β, Ethyl 2,4,6-tri-O-acetyl-3-isotiocianato-1,3-dideoxy-1[(S)-sulfinyl]-β-D-glucopyranose] | – | – | 1.5±0.1 | – | 1.7±0.0 | – | 2.0±0.2 | ~25.3 | 89.5 | 52.4 | 45.6 | 85.2 ± 12.7 | 56.4 ± 6.6 | 51.5 ± 7.9 | 42.3 ± 3.2
3 | CCS[C@@H]1O[C@H](COC(C)=O)[C@@H](OC(C)=O)[C@H](N=C=S)[C@H]1OC(C)=O [Compound 14β, Ethyl 2,4,6-tri-O-acetyl-3-isothiocyanato-1,3-dideoxy-1-thio-β-D-glucopyranoside] | – | – | 1.6±0.1 | – | 1.5±0.2 | – | 1.7±0.2 | ~13 | 17.8 | 20.1 | ~26.7 | 72.2 ± 13.2 | 45.1 ± 6.8 | 49.9 ± 8.5 | 42 ± 5.7
4 | CS(=O)(=O)CCCN=C=S [Compound 6, 1-isothiocyanato-3-(methylsulfonyl)propane, reference compound] | 35.9 ± 7.8 | 25.2 ± 9.3 | 1.9±0.4 | 29.5 ± 8.7 | 1.3±0.2 | 10.7 ± 2.2 | 3.3±0.1 | 7 | 10.3 | 13 | 8.4 | – | – | – | –
5 | CCS[C@H]1O[C@H](COC(C)=O)[C@@H](OC(C)=O)[C@H](N=C=S)[C@H]1OC(C)=O [Compound 14α, Ethyl 2,4,6-tri-O-acetyl-3-isothiocyanato-1,3-dideoxy-1-thio-α-D-glucopyranoside] | – | – | 1.5±0.3 | – | 1.2±0.2 | – | 1.4±0.2 | 9.7 | 12.5 | 17 | 25.1 | 51.3 ± 1.8 | 40.6 ± 9 | 46.4 ± 7.6 | 40.7 ± 6.9
6 | CC(=O)OC[C@H]1O[C@@H]([S@@+]([O-])c2ccccc2)[C@H](OC(C)=O)[C@@H](N=C=S)[C@@H]1OC(C)=O [(SS)-18β, Phenyl 2,4,6-tri-O-acetyl-3-isotiocianato-1,3-dideoxy-1[(S)-sulfinyl]-β-D-glucopyranose] | – | – | 1.5±0.1 | – | 1.5±0.1 | – | 2.0±0.3 | ~6.6 | 20 | 16.6 | ~43.3 | 24.2 ± 3.9 | 16.8 ± 2.9 | 16 ± 2.6 | 12.9 ± 3
7 | CCS(=O)(=O)[C@@H]1O[C@H](COC(C)=O)[C@@H](OC(C)=O)[C@H](N=C=S)[C@H]1OC(C)=O [Compound 20β, Ethyl 2,4,6-tri-O-acetyl-3-isothiocyanato-1,3-dideoxy-1-sulfonyl-β-D-glucopyranose] | 84.9 ± 15.2 | 47.9 ± 10 | 1.9±0.3 | 53.6 ± 7.4 | 1.6±0.3 | 39.3 ± 3.7 | 2.1±0.2 | 19.8 | 45.1 | 37.2 | 34.7 | – | – | – | –
8 | CC(=O)OCC1OC([S+](C)[O-])C(OC(C)=O)C(N=C=S)C1OC(C)=O [(SS)-16β, Methyl 2,4,6-tri-O-acetyl-3-isothiocyanato-1,3-dideoxy-1-(S)-sulfinyl-β-D-glucopyranoside] | – | – | – | – | – | – | – | 36.9 | 128 | 64.9 | ~51.2 | > 100 | 109 ± 23.7 | 122 ± 20.7 | 94.2 ± 13.2
9 | C[S+]([O-])CCCN=C=S (racemic) [rac-5, 1-isothiocyanato-3-(methylsulfinyl)propane, reference compound] | 33 ± 5.8 | 20.7 ± 5.7 | 1.8±0.3 | 32.8 ± 5.8 | 1.0±0.1 | 12.2 ± 2.9 | 2.9±0.3 | 11 | 13.7 | 19.4 | 8.5 | – | – | – | –
